± gives the standard deviation of the averaged measurements.
Assay: TIMS collisional cross section (CCS, N2) of the lipid ion; higher = larger ion cross section
Details: ionization mode: positive, one isomer drawn

Row | SMILES | TIMS collisional cross section (sample type: HeLa) [Å²] | TIMS collisional cross section (sample type: Liver) [Å²] | TIMS collisional cross section (sample type: plasma) [Å²]
1 | CCCCCCCC/C=C\CCCCCCCC(=O)O[C@H](COC(=O)CCCCCCCCCCCCCCC)COP(=O)(O)OCCN [PE 16:0_18:1] (ion (formula + adduct): [C39H76NO8P+H] 1+) | 275.3 |  | 
2 | CCCCC/C=C\C/C=C\C/C=C\C/C=C\CCCC(=O)O[C@H](COC(=O)CCCCCCCCCCCCCCCCC)COP(=O)([O-])OCC[N+](C)(C)C [PC 18:0_20:4] (ion (formula + adduct): [C46H84NO8P+H] 1+) | 296.2 | 295.6 | 
3 | CCCCC/C=C\C/C=C\C/C=C\CCCCCCCCC(=O)OC[C@@H](COC(=O)CCCCCCCCCCCCCCC)OC(=O)CCCCCCCCCCCCCCCCCCC [TG 16:0_20:0_22:3] (ion (formula + adduct): [C61H112O6+Na] 1+) |  |  | 333.9
4 | CCCCC/C=C\C/C=C\CCCCCCCCCCCC(=O)OC[C@@H](COC(=O)CCCCCCCCCCCCCCC)OC(=O)CCCCCCCCCCCCCCCCCCCC [TG 16:0_21:0_22:2] (ion (formula + adduct): [C62H116O6+NH4] 1+) |  |  | 342.3
5 | CCCCC/C=C\C/C=C\C/C=C\C/C=C\CCCCCC(=O)OC[C@@H](COC(=O)CCCCCCC/C=C\C/C=C\CCCCC)OC(=O)CCCCCCCCC/C=C\C/C=C\CCCCC [TG 18:2_20:2_22:4] (ion (formula + adduct): [C63H106O6+NH4] 1+) |  | 335.7 | 
6 | CCCCC/C=C\C/C=C\C/C=C\C/C=C\CCCC(=O)O[C@H](COC(=O)CCCCCCC/C=C\CCCCCCC)COP(=O)(O)OCCN [PE 17:1_20:4] (ion (formula + adduct): [C42H74NO8P+H] 1+) |  | 275.6 | 
7 | CC/C=C\C/C=C\C/C=C\C/C=C\C/C=C\CCCCCC(=O)OC[C@@H](COC(=O)CCCCCCCCCCCCCCC)OC(=O)CCCCCCC/C=C\CCCCCCCC [TG 16:0_18:1_22:5] (ion (formula + adduct): [C59H102O6+NH4] 1+) | 328.5 |  | 
8 | CCCCCCCCCCCCCC/C=C\OC[C@H](COP(=O)([O-])OCC[N+](C)(C)C)OC(=O)CCCCCCCCCCCCCCC [PC P- 16:0_16:0] (ion (formula + adduct): [C40H80NO7P+H] 1+) | 284.4 |  | 284.4
9 | CCCCCCCCCCCCC/C=C/[C@@H](O)[C@H](COP(=O)([O-])OCC[N+](C)(C)C)NC(=O)CCCCCCCCCCCCCCC [SM d18:1_16:0@] (ion (formula + adduct): [C39H79N2O6P+H] 1+) | 284.9 | 285 | 285.4
10 | CCCCC/C=C\C/C=C\CCCCCCCCCC(=O)OC[C@@H](COC(=O)CCCCCCCCCCCCCCCCC)OC(=O)CCCCCCC/C=C\C/C=C\CCCCC [TG 18:0_18:2_20:2] (ion (formula + adduct): [C59H106O6+NH4] 1+) |  | 330.3 | 
11 | CCCCCCCCCCCCCCCCCCCC(=O)OC[C@@H](COC(=O)CCCCCCCCCCCCCCC)OC(=O)CCCCCCCCCCCCCCCC [TG 16:0_17:0_20:0] (ion (formula + adduct): [C56H108O6+NH4] 1+) | 328.6 |  | 
12 | CCCCCCCC/C=C\CCCCCCCCCCCCCC(=O)N[C@@H](COP(=O)([O-])OCC[N+](C)(C)C)[C@H](O)/C=C/CCCCCCCCCCCC [SM d17:1_24:1@] (ion (formula + adduct): [C46H91N2O6P+H] 1+) | 302.1 |  | 
13 | CC/C=C\C/C=C\C/C=C\CCCCCCCC(=O)OC[C@@H](O)COP(=O)([O-])OCC[N+](C)(C)C [LPC 18:3] (ion (formula + adduct): [C26H48NO7P+H] 1+) |  |  | 224.9
14 | CCCCC/C=C\C/C=C\CCCCCCCC(=O)O[C@@H](CO)COC(=O)CCCCCCCCCCCCCCC [DG 16:0_18:2_0:0] (ion (formula + adduct): [C37H68O5+NH4] 1+) |  | 259.8 | 
15 | CC/C=C\C/C=C\C/C=C\C/C=C\C/C=C\CCCCCC(=O)OC[C@@H](COC(=O)CCCCCCC/C=C\CCCCCCCC)OC(=O)CCCCCCC/C=C\CCCCCCCC [TG 18:1_18:1_22:5] (ion (formula + adduct): [C61H104O6+NH4] 1+) | 332.3 |  | 332.6
16 | CCCCCCCC/C=C\CCCCCCCCCCCC(=O)N[C@@H](COP(=O)([O-])OCC[N+](C)(C)C)[C@H](O)/C=C/CCCCCCCCCCC [SM d16:1_22:1@] (ion (formula + adduct): [C43H85N2O6P+H] 1+) |  |  | 294.45 ± 0.21
17 | CCCCCCCCCCCCCCCCCCCCCCCC(=O)N[C@@H](COP(=O)([O-])OCC[N+](C)(C)C)[C@H](O)CCCCCCCCCCCCCCC [SM d18:0_24:0@] (ion (formula + adduct): [C47H97N2O6P+H] 1+) |  |  | 309.6
18 | CC/C=C\C/C=C\C/C=C\C/C=C\C/C=C\C/C=C\CCC(=O)O[C@H](COC(=O)CCCC/C=C\C/C=C\C/C=C\CCCCC)COP(=O)(O)OCCN [PE 18:3_22:6] (ion (formula + adduct): [C45H72NO8P+H] 1+) |  | 276.7 | 
19 | CCCC/C=C\CCCCCCCC(=O)O[C@H](COC(=O)CCCCCCCCCCCCC)COC(=O)CCCCCCCCCCCCCCC [TG 14:0_14:1_16:0] (ion (formula + adduct): [C47H88O6+NH4] 1+) |  | 299.8 | 
20 | CCCCCC/C=C\CCCCCCCC(=O)OC[C@H](COC(=O)CCCCCCCCC/C=C\CCCCCCCC)OC(=O)CCCCCCCCCCCCCCCCC [TG 16:1_18:0_20:1] (ion (formula + adduct): [C57H106O6+NH4] 1+) |  | 328.2 | 
21 | CCCCC/C=C\C/C=C\C/C=C\CCCCCCCCC(=O)OC[C@@H](COC(=O)CCCCCCC/C=C\CCCCCCC)OC(=O)CCCCCCC/C=C\CCCCCCCC [TG 17:1_18:1_22:3] (ion (formula + adduct): [C60H106O6+NH4] 1+) | 332 |  | 
22 | CCCCC/C=C\C/C=C\C/C=C\C/C=C\CCCCCC(=O)OC[C@@H](O)COP(=O)([O-])OCC[N+](C)(C)C [LPC 22:4] (ion (formula + adduct): [C30H54NO7P+H] 1+) |  |  | 237.55 ± 1.2
23 | CCCCCCCCCCCCCCCCC(=O)OC[C@@H](COC(=O)CCCCCCCCCCCC)OC(=O)CCCCCCCCCCCCC [TG 13:0_14:0_17:0] (ion (formula + adduct): [C47H90O6+NH4] 1+) |  | 301.8 | 
24 | CCCCCC/C=C\CCCCCCCC(=O)OC[C@@H](COC(=O)CCCCCCCCCCCCC)OC(=O)CCCCCCC/C=C\CCCCCC [TG 14:0_16:1_16:1] (ion (formula + adduct): [C49H90O6+NH4] 1+) | 302.9 ± 0.28 |  | 303.5

Source: the supplement of paper PMC6965134
